Data from article PMC13252604, “First Generation Proteolysis Targeting Chimeras (PROTACs) for the Treatment of Progeria” (Advanced Science, 2026).

Target: T1, progerin (Mus musculus, UniProt P48678, DEL608-657)
T1 construct: endogenous in cells; host or cells: immortalized (SV40-LT) fibroblasts from Lmna G609G/G609G mice
T1 sequence (P48678 with tags, fused parts or gaps DEL608-657 limits assumed): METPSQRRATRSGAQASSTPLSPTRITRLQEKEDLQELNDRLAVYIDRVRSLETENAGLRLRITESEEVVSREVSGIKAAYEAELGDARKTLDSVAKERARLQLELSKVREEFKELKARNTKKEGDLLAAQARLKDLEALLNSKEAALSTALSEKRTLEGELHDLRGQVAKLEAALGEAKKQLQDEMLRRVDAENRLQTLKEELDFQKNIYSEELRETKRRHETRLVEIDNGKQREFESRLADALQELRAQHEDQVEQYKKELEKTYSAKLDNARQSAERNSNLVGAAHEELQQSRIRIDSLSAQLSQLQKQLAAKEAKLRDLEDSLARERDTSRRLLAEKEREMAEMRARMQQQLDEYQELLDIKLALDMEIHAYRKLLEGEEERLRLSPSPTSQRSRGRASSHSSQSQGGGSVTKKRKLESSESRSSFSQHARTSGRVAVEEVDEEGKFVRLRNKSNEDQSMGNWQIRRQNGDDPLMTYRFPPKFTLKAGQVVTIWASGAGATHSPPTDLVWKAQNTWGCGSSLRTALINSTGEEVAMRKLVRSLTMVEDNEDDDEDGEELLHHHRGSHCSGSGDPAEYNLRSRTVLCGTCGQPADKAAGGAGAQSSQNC
Experiment: Cellular thermal shift assay
Format: binding
Protocol: Vehicle .LM123L T-!=>(%C" V,!=> […]
50- !!!!!C#' -4TT8VLamin C -4T:T; (%$$-4-:?5T '()*+
!!!!!E#)*+,- ,V4:-β-Actin ,?4?V ,848; D(%
37- !!!!!*+,- 84;66L<-,V V4-;VL<-,? ?4T-?L<-,8 ,-)*+ […]
Supporting Figure S2. Ternary complex formation, progerin engagement and global selectivity of compound 2. […]
(C) Thermal denaturation curves of progerin in the presence of vehicle (black) or compound 2 at 10 µM (red, DTm=0.7±0.1 °C) or 25 µM (blue, […]
of compound 2 (IC50=7±1 µM). Curves are generated and fitted using sigmoidal dose-response non-linear regression curve fit in GraphPad Prism. Symbols and associated error bars (when not enclosed by the symbol) represent average±SD from two independent experiments carried out in duplicate. […]
(also on this page, place not known: >4000; Cpd2Cpd2 #)"$"C"#"*")*$*C ,V4:- 89:/1239 .0,;902<=:939:>=R?T !"#$#" (%$$ (%C" #)"$"C"#"*")*$*C -45665 -4TT8V ,V4:- 84;66L<-,V T-!=> ,?4?V V4-;VL<-,? -4-:?5T ,848; ?4T-?L<-,8 89:/1239 .0,;902<=:939:>=R?T FFFFFSB#T89: FFFFFSB#T89: FFFFFa+#-++GFB2FC-++CB$ FFFFFbFGF4D-+C FFFFF!4$FB2F!F4D-+G FFFFFiFB2FMF3DE4+G FFFFFiFkF3DE4+GFDLDEdl+C I9em:m rrr 9 :eosmX :e:snst o o Ise::::: I9e::::: :etpoooomX :esnnsmqmX :enst9mmqo :estm9XpoX Lamin β-Actin Progerin Relative progerin levelsin thesoluble fraction Relative levelsof denaturedprogerin [Cpd2, Relative progerin signal intensityvs IgG Cpd2 [Cpd2]=10 [Cpd2]=25 AbundanceRatio Veh Cpd2 -Log10 (p value)) […]
buffer containing 2.5% β-mercaptoethanol, and heated at 95 °C for 5 min prior to magnetic separation and loading of supernatants onto SDS -PAGE gels. Input lysates (~30 µg) were prepared in parallel as Western blot controls.
14. Cellular thermal shift assay.
Progeroid mouse fibroblasts (LmnaG609G/G609G) were seeded (2x10^6 cells) in 100 mm dishes 24 h before the experiment. Next day, cells were first washed with PBS and then incubated with the proteasome inhibitor (S)-MG132 (20 µM) for 2 h at 37 °C and 5%
CO2. Then, the cells were incubated with compound 2 at the corresponding concentration or with vehicle for 60 min at 37 °C and 5% CO2. Cells were then washed with PBS, detached by treatment with trypsin, and collected by centrifugation at 250g and 25 °C for 5 min, washed with PBS and resuspended in PBS in 0.2 mL microtubes. Then, homogenates or cells were transferred to PCR tubes and heat-shocked for 3 min at the appropriate temperature (37 to 61 °C) followed by rapid cooling to 25 °C using a SensoQuest LabCycler Thermocycler (Progen Scientific Ltd). Igepal CA-630 was then added to the samples (final concentration of 1 % v/v), and the samples were thoroughly mixed and denatured by three cycles of freezing/thawing (immersion in liquid nitrogen followed by fast thawing). […]

For `CC1(C)Oc2cc3oc(=O)ccc3cc2C[C@@H]1OC(=O)CCCCCNc1cccc2c1C(=O)N(C1CCC(=O)NC1=O)C2=O` (stereo partly shown) [compound 2], the IC50 (CETSA, isothermal at 53 °C, Lmna^G609G/G609G fibroblasts, read-out: binding affinity by isothermal dose‐response fingerprint (IC50)) was 7 ± 1 µM, the “direct binding to progerin by cellular thermal shift assays” value (Lmna^G609G/G609G fibroblasts) was “direct binding between compound 2 and progerin” and the ΔTm at 10 µM (compound at 10 µM, read-out: DTm of progerin (thermal denaturation curve)) was 0.7 ± 0.1 °C. For the same molecule, the ΔTm at 25 µM (compound at 25 µM, read-out: DTm of progerin (thermal denaturation curve)) was 2 ± 0.3 °C.
